From US11760773B2, “Small molecule drug conjugates of gemcitabine monophosphate” (MaveriX Oncology, Inc., priority 2018, dated 2023)
Like-named read-outs stand apart in the source and are kept apart here. Values belong to the compound of their own block, whether it stands above or below them.

Columns and labels:
UT-SCC-8 = experiment: Tumor cell proliferation (alamarBlue) cytotoxicity assay, UT-SCC-8; format: cell-based, human; settings: Homo sapiens; UT-SCC-8, 72 hours treatment
Description: (§1) A tumor cell proliferation assay was used to determine cytotoxicity IC50 values for the phosphate prodrug Compounds 1-9, the parent non-phosphorylated SMDC parent compounds, and the effector (gemcitabine) across eight primary early-passage human head and neck squamous cell carcinoma cell lines including UT-SCC-5, UT-SCC-8, UT-SCC-9, UT-SCC-10, UT-SCC-14, UT-SCC-16A, UT-SCC-16B, and UT-SCC-24A.
(§2) UTSCC cells were seeded at 4000 cells/100 I/well on 96-well black clear-bottom tissue culture plate. Cells were incubated at 37° C. and 5% CO2 overnight to allow them to recover and re-attach. The next day cells were treated with the test compound (0-100 μM) for 72 hours. After treatment, cell proliferation was measured by Fluorescent quantitation of alamarBlue reagent. The alamarBlue assay incorporates a fluorometric/colorimetric growth indicator based on detection of metabolic activity. Specifically, resazurin, the active ingredient of alamarBlue reagent, is blue in color and virtually non-fluorescent. Upon entering cells, resazurin is reduced to resorufin, a compound that is red in color and highly fluorescent.
(§3) Continued cell growth maintains a reduced environment, therefore increasing the overall fluorescence and color of the media surrounding cells. The fluorescence intensity of alamarBlue reagent was directly proportional to cell number. To perform the alamarBlue assay, 10 I of alamarBlue reagent was added to each well and the plate was incubated at 37° C. for an additional 2 hour. Fluorescence intensity was measured at an excitation of 530 nm and an emission of 590 nm using a BioTek Synergy™ 2 microplate reader.
(§4) Cell proliferation assays in triplicate were performed at each concentration. The fluorescent intensity data were analyzed using the computer software, Graphpad Prism. In the absence of the compound, the fluorescent intensity (Ft) in each data set was defined as 100%. In the absence of cells, the fluorescent intensity (Fb) in each data set was defined as 0%. The percent cell in the presence of each compound was calculated according to the following equation: % cell=(F−Fb)/(Ft−Fb), where F=the fluorescent intensity in the presence of the compound, Fb=the fluorescent intensity in the absence of cells, and Ft=the fluorescent intensity in the absence of the compound. The values of % cell versus a series of compound concentrations were then plotted using non-linear regression analysis of Sigmoidal dose-response curve generated with the equation Y=B+(T−B)/1+10^((Log EC50-X)×Hill Slope) where Y=percent cell, B=minimum percent cell, T=maximum percent cell, X=logarithm of compound and Hill Slope=slope factor or Hill coefficient. The IC50 value was determined by the concentration causing a half-maximal percent activity.

UT-SCC-16A = experiment: Tumor cell proliferation (alamarBlue) cytotoxicity assay, UT-SCC-16A; format: cell-based, human; settings: Homo sapiens, 72 hours treatment
Description: as §1, §2, §3, §4

UT-SCC-16B = experiment: Tumor cell proliferation (alamarBlue) cytotoxicity assay, UT-SCC-16B; format: cell-based, human; settings: Homo sapiens, 72 hours treatment
Description: as §1, §2, §3, §4

Solubility / formulation = format: physicochemical
[1] = Int 1-4 normal tissue and plasma PK in CD-1 mice (study d); format: in vivo; settings: male CD-1 mice, iv Int 1-4, FIG. 5
Description: Objectives: to compare the normal tissue pharmacokinetics, distribution, and stability of Int 1-4 in excretory organs following a single intravenous infusion administration of Int 1-4 at 20 mg/kg in male CD-1 mice.
PK measurements: compare PK parameters C0, CL, Vdss, Cmax, tmax, t1/2, AUC(0-t), AUC(0-inf), MRT(0-t), MRT(0-inf) for Int 1-4

Rat plasma stability = format: in vitro ADME
Description: Method: Assay was carried out in 96-well microtiter plates. Compounds were incubated in replicates (n=2) for 0, 5, 15, 30, and 45 minutes at 37° C. Reaction mixtures (20 μL) contained a final concentration of 3 μM test compound in fresh Sprague Dawley rat plasma. Eucatropine is a positive control to verify assay performance. Linear regression of semi-log plot of % remaining of compounds versus time used to determine the half-life t1/2 values.

Human liver S9 stability = format: in vitro ADME; settings: for microsomal CLint: human
Mouse liver S9 stability = format: in vitro ADME; settings: for microsomal CLint: mouse
[2] = Monkey liver S9 stability; format: in vitro ADME; settings: for microsomal CLint: monkey
Dog liver S9 stability = format: in vitro ADME; settings: for microsomal CLint: dog
Rat liver S9 stability = format: in vitro ADME; settings: for microsomal CLint: rat
[3] = Liver microsomal stability, monkey; format: in vitro ADME; settings: monkey liver microsomes
[4] = Liver microsomal stability, rat; format: in vitro ADME; settings: rat liver microsomes
[5] = Liver microsomal stability, mouse; format: in vitro ADME; settings: mouse liver microsomes
[6] = Metabolic stability in liver hepatocytes, dog; format: in vitro ADME
[7] = Metabolic stability in liver hepatocytes, across species; format: in vitro ADME; settings: mouse, dog, monkey, rat highest, human lowest, read-out: intrinsic clearance values Cint

solubility (Solubility / formulation): low to moderate solubility | formulated to (Solubility / formulation; formulation): 50 mg/mL | stability in plasma and major excretory organs (liver, kidney) [1]: stable | Slope Mean ± SE (Rat plasma stability; Sprague Dawley rat plasma, 3 μM, 37° C.): −0.009305 ± 0.001423 | half-life at 3 μM (Rat plasma stability; Sprague Dawley rat plasma, read-out: t1/2 (converted)): ~1.2 h | half-life at 3 μM (Rat plasma stability; fresh Sprague Dawley rat plasma, 3 μM, 37° C., read-out: t1/2 Mean ± SE): 1.24 ± 0.19 h | Slope Mean ± SE (Human liver S9 stability; human liver S9): −0.005545 ± 0.000717 | half-life (Human liver S9 stability; human liver S9, read-out: t1/2 Mean ± SE): 2.08 ± 0.27 h | microsomal CLint (Human liver S9 stability; liver S9, human liver S9, summary, read-out: S9 intrinsic clearance Clint): < 2.5 µL/min/mg | microsomal CLint (Human liver S9 stability; liver S9, human liver S9, text value, read-out: intrinsic clearance value): 2.22 µL/min/mg | microsomal CLint (Human liver S9 stability; liver S9, human liver S9, read-out: CLint Mean ± SE): 2.22 ± 0.287 µL/min/mg | Slope Mean ± SE (Mouse liver S9 stability; mouse liver S9): −0.00317 ± 0.000413 | half-life (Mouse liver S9 stability; mouse liver S9, read-out: t1/2 Mean ± SE): 3.64 ± 0.475 h | microsomal CLint (Mouse liver S9 stability; liver S9, mouse liver S9, summary, read-out: S9 intrinsic clearance Clint): < 2.5 µL/min/mg | microsomal CLint (Mouse liver S9 stability; liver S9, mouse liver S9, text value, read-out: intrinsic clearance value): 1.27 µL/min/mg | microsomal CLint (Mouse liver S9 stability; liver S9, mouse liver S9, read-out: CLint Mean ± SE): 1.27 ± 0.165 µL/min/mg | Slope Mean ± SE ([2]; monkey liver S9): −0.03881 ± 0.002089 | half-life ([2]; monkey liver S9, read-out: t1/2 Mean ± SE): 0.298 ± 0.0167 h | microsomal CLint ([2]; liver S9, monkey liver S9, summary, read-out: S9 intrinsic clearance Clint): < 2.5 µL/min/mg | microsomal CLint ([2]; liver S9, monkey liver S9, read-out: CLint Mean ± SE): 15.5 ± 0.836 µL/min/mg | microsomal CLint ([2]; liver S9, monkey liver S9 experiment, read-out: intrinsic clearance value): 15.5 µL/min/mg | Slope Mean ± SE (Dog liver S9 stability; dog liver S9): −0.005558 ± 0.000749 | half-life (Dog liver S9 stability; dog liver S9, read-out: t1/2 Mean ± SE): 2.08 ± 0.28 h | intrinsic clearance value (Dog liver S9 stability; dog liver S9 experiment): < 2.5 μL/min/mg protein | microsomal CLint (Dog liver S9 stability; liver S9, dog liver S9, read-out: CLint Mean ± SE): 2.22 ± 0.299 µL/min/mg | microsomal CLint (Dog liver S9 stability; liver S9, dog liver S9 experiment, read-out: intrinsic clearance value): 2.2 µL/min/mg | Slope Mean ± SE (Rat liver S9 stability; rat liver S9): −0.03579 ± 0.001471 | intrinsic clearance value (Rat liver S9 stability; rat liver S9, text value): ~14 μL/min/mg protein | half-life (Rat liver S9 stability; rat liver S9, read-out: t1/2 Mean ± SE): 0.323 ± 0.0133 h | microsomal CLint (Rat liver S9 stability; liver S9, rat liver S9, text value, read-out: intrinsic clearance value): 14.3 µL/min/mg | microsomal CLint (Rat liver S9 stability; liver S9, rat liver S9, read-out: CLint Mean ± SE): 14.3 ± 0.588 µL/min/mg | half-life [3]: 0.567 h | microsomal CLint [3]: 40.8 µL/min/mg | Compound Remaining (% of 0 min) 0 min ([3]; 0 min): 100 % of 0 min | Compound Remaining (% of 0 min) 5 min ([3]; 5 min): 99.5 % of 0 min | Compound Remaining (% of 0 min) 15 min ([3]; 15 min): 79.8 % of 0 min | Compound Remaining (% of 0 min) 30 min ([3]; 30 min): 61.0 % of 0 min | Compound Remaining (% of 0 min) 45 min ([3]; 45 min): 40.5 % of 0 min | Compound Remaining (% of 0 min) control ([3]; control): 97.2 % of 0 min | CLint [4]: 297 μL/min/mg protein | half-life [4]: 4.66 min | microsomal CLint [4]: 297 µL/min/mg | Compound Remaining (% of 0 min) 0 min ([4]; 0 min): 100 % of 0 min | Compound Remaining (% of 0 min) 5 min ([4]; 5 min): 64.7 % of 0 min | Compound Remaining (% of 0 min) 15 min ([4]; 15 min): 20.0 % of 0 min | Compound Remaining (% of 0 min) 30 min ([4]; 30 min): 1.81 % of 0 min | Compound Remaining (% of 0 min) 45 min ([4]; 45 min): 0.13 % of 0 min | Compound Remaining (% of 0 min) control ([4]; control): 95.6 % of 0 min | half-life [5]: 1.35 h | microsomal CLint [5]: 17.1 µL/min/mg | Compound Remaining (% of 0 min) 0 min ([5]; 0 min): 100 % of 0 min | Compound Remaining (% of 0 min) 5 min ([5]; 5 min): 102 % of 0 min | Compound Remaining (% of 0 min) 15 min ([5]; 15 min): 78.4 % of 0 min | Compound Remaining (% of 0 min) 30 min ([5]; 30 min): 73.6 % of 0 min | Compound Remaining (% of 0 min) 45 min ([5]; 45 min): 70.7 % of 0 min | Compound Remaining (% of 0 min) control ([5]; control): 93.2 % of 0 min | Slope Mean ± SE [6]: −0.00433 ± 0.001287 | half-life ([6]; negative value indicates compound is stable, read-out: t1/2 mean ± SE): 2.67 ± 0.793 h | microsomal CLint [7]: 3 to 8 µL/min/mg
Structure (SMILES): COc1cc(OC)c2oc(COC(=O)Nc3ccn([C@@H]4O[C@H](CO)[C@@H](O)C4(F)F)c(=O)n3)cc2c1 [Int 1-4, (5,7-di(methoxy)benzofuran-2-yl)methyl (1-((2R,4R,5R)-3,3-difluoro-4-hydroxy-5-(hydroxymethyl)tetrahydrofuran-2-yl)-2-oxo-1,2-dihydropyrimidin-4-yl)carbamate]
IC50 (UT-SCC-8): 32 nM | IC50 (UT-SCC-16A): 138 nM | IC50 (UT-SCC-16B): 162 nM

Structure (SMILES): Nc1ccn([C@@H]2O[C@H](CO)[C@@H](O)C2(F)F)c(=O)n1 [Gemcitabine, gemcitabine]
IC50 (UT-SCC-8): 22 nM | IC50 (UT-SCC-16A): 61 nM | IC50 (UT-SCC-16B): 99 nM | Slope Mean ± SE [6]: 0.000126 ± 0.001156
